Test results reported in ChEMBL document CHEMBL5032504, “Discovery and Optimization of a Novel 2H-Pyrazolo[3,4-d]pyrimidine Derivative as a Potent Irreversible Pan-Fibroblast Growth Factor Receptor Inhibitor” (J Med Chem, 2021).

Key:
[1] = molecular target: Dual specificity protein kinase CLK1 (Homo sapiens) (UniProt P49759); conditions: dose 1000.0 nM
Description: Inhibition of CLK1 (unknown origin) at 1000 nM relative to control

[2] = molecular target: Discoidin domain-containing receptor 2 (Homo sapiens) (UniProt Q16832); conditions: dose 1000.0 nM
Description: Inhibition of DDR2 (unknown origin) at 1000 nM relative to control

[3] = molecular target: Tyrosine-protein kinase ITK/TSK (Homo sapiens) (UniProt Q08881); conditions: dose 1000.0 nM
Description: Inhibition of ITK (unknown origin) at 1000 nM relative to control

NCI-H1581 [4] = test: cells; assay type: functional, cell-based; conditions: Homo sapiens, NCI-H1581, 96 h
[5] = molecular target: Tyrosine-protein kinase Mer (Homo sapiens) (UniProt Q12866); conditions: dose 1000.0 nM
Chain of Tyrosine-protein kinase Mer (Homo sapiens) (Q12866 whole entry): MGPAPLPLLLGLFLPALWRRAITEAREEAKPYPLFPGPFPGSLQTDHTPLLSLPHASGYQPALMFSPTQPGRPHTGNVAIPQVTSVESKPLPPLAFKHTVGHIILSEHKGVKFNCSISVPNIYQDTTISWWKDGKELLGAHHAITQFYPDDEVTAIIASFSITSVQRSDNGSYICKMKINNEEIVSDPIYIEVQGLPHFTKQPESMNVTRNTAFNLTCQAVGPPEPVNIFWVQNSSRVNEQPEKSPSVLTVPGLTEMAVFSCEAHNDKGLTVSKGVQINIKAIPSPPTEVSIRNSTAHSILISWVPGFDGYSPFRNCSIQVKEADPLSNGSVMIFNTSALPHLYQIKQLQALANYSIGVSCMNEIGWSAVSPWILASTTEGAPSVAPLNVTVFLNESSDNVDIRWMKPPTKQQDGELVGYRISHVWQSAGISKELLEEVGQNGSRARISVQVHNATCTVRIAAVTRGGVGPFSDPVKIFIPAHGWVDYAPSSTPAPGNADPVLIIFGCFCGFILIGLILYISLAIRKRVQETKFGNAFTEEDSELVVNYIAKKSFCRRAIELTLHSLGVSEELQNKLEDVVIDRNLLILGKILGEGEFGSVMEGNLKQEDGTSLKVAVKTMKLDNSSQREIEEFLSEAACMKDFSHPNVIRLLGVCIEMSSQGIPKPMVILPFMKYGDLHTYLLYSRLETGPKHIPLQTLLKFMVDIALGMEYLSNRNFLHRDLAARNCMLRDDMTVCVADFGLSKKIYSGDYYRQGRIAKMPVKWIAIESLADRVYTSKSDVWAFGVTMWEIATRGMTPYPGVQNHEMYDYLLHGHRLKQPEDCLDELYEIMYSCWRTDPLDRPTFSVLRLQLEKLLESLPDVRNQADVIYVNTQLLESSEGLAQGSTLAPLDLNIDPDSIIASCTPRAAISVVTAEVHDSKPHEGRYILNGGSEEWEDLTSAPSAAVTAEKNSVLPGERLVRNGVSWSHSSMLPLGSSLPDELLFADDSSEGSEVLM
Description: Inhibition of c-MER (unknown origin) at 1000 nM relative to control

[6] = molecular target: Cyclin-dependent kinase 4 (Homo sapiens) (UniProt P11802); conditions: dose 1000.0 nM
Chain of Cyclin-dependent kinase 4 (Homo sapiens) (P11802 whole entry): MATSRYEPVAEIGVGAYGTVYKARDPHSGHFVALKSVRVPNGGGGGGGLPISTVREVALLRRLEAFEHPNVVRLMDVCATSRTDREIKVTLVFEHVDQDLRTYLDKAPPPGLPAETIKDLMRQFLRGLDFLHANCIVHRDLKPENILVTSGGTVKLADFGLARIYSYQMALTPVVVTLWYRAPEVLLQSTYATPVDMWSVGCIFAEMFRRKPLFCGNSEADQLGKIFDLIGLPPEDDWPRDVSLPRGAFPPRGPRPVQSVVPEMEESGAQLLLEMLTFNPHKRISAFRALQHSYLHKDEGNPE
Description: Inhibition of CDK4 (unknown origin) at 1000 nM relative to control

in vivo [7] = conditions: Sprague-Dawley, rat, iv, 5 mg/kg
NCI-H1581 [8] = test: animal or person; assay type: functional; conditions: Mus musculus, NCI-H1581, po, 624 h, time 26 day, read-out: TGI
Description: Antitumor activity against human NCI-H1581 cells xenografted in BALB/c mouse assessed as tumor growth inhibition at 100 mg/kg, po administered once daily for 26 days relative to control

[9] = molecular target: Hepatocyte growth factor receptor (Homo sapiens) (UniProt P08581); conditions: dose 1000.0 nM
Description: Inhibition of MET (unknown origin) at 1000 nM relative to control

Homo sapiens [10] = organism: Homo sapiens; conditions: dose 1000.0 nM
Description: Inhibition of PKA (unknown origin) at 1000 nM relative to control

[11] = molecular target: Tyrosine-protein kinase BTK (Homo sapiens) (UniProt Q06187); conditions: dose 1000.0 nM
Chain of Tyrosine-protein kinase BTK (Homo sapiens) (Q06187 whole entry): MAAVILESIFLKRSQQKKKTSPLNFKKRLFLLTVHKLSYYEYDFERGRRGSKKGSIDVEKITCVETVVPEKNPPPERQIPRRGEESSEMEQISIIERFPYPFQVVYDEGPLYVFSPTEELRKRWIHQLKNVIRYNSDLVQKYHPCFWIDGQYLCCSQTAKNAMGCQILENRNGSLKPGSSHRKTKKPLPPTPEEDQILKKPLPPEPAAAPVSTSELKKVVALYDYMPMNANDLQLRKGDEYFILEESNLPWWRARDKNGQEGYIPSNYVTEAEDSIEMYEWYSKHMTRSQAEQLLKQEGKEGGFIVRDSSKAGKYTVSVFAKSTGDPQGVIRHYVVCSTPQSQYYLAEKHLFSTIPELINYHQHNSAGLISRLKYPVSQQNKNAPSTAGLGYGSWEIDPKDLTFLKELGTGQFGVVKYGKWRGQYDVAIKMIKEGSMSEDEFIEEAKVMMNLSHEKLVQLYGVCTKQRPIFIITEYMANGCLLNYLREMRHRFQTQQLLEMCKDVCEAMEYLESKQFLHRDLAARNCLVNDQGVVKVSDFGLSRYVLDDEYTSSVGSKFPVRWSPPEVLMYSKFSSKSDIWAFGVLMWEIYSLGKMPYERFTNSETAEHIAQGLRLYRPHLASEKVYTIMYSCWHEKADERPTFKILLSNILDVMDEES
Description: Inhibition of BTK (unknown origin) at 1000 nM relative to control

[12] = molecular target: Interleukin-1 receptor-associated kinase 4 (Homo sapiens) (UniProt Q9NWZ3); conditions: dose 1000.0 nM
Description: Inhibition of IRAK4 (unknown origin) at 1000 nM relative to control

[13] = molecular target: Glycogen synthase kinase-3 beta (Homo sapiens) (UniProt P49841); conditions: dose 1000.0 nM
Description: Inhibition of GSK3beta (unknown origin) at 1000 nM relative to control

[14] = molecular target: Voltage-gated inwardly rectifying potassium channel KCNH2 (Homo sapiens, UniProt Q12809)
Description: Binding affinity to human ERG

SNU-16 [15] = test: animal or person; assay type: functional; conditions: Mus musculus, SNU-16, po, 960 h, time 40 day, read-out: TGI
Description: Antitumor activity against human SNU-16 cells xenografted in BALB/c mouse assessed as tumor growth inhibition at 50 mg/kg, po administered once daily for 40 days relative to control

[16] = molecular target: Platelet-derived growth factor receptor alpha (Homo sapiens) (UniProt P16234); conditions: dose 1000.0 nM
Chain of Platelet-derived growth factor receptor alpha (Homo sapiens) (P16234 whole entry): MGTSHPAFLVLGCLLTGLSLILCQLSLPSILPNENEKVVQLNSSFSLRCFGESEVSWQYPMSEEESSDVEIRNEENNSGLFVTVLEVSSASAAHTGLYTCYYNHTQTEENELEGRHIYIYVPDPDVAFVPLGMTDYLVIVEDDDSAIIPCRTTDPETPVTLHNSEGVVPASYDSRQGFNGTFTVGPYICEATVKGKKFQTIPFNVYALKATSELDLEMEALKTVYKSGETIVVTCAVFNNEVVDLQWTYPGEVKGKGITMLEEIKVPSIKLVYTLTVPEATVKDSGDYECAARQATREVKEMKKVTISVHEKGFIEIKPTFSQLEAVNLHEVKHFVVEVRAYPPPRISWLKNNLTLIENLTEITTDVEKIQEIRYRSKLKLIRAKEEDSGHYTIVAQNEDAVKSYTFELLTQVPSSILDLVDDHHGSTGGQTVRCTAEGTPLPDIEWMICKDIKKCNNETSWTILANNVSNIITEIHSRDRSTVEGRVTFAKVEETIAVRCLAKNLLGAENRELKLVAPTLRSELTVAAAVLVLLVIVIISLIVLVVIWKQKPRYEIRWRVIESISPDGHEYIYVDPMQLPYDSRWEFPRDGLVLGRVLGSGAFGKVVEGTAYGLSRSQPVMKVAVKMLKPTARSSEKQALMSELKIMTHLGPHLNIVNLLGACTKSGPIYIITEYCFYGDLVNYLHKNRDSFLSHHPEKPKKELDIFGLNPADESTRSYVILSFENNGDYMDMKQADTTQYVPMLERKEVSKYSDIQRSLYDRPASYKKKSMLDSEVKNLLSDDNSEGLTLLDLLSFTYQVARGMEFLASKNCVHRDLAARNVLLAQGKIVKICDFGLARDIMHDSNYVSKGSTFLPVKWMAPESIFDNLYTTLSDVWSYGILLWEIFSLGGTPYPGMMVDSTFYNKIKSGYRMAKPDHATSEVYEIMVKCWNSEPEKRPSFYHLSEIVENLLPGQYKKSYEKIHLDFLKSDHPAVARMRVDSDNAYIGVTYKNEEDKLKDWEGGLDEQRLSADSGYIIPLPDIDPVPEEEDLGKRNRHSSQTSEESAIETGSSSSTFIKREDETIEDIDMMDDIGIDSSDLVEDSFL
Description: Inhibition of PDGFRA (unknown origin) at 1000 nM relative to control

[17] = molecular target: Mitogen-activated protein kinase kinase kinase 14 (Homo sapiens) (UniProt Q99558); conditions: dose 1000.0 nM
Description: Inhibition of NIK (unknown origin) at 1000 nM relative to control

Homo sapiens [18] = organism: Homo sapiens; conditions: dose 1000.0 nM; remark: listed apart in the source
Description: Inhibition of FYNA (unknown origin) at 1000 nM relative to control

[19] = molecular target: Tyrosine-protein kinase CSK (Homo sapiens) (UniProt P41240); conditions: dose 1000.0 nM
Description: Inhibition of CSK (unknown origin) at 1000 nM relative to control

[20] = molecular target: Mitogen-activated protein kinase 14 (Homo sapiens) (UniProt Q16539); conditions: dose 1000.0 nM
Chain of Mitogen-activated protein kinase 14 (Homo sapiens) (Q16539 whole entry): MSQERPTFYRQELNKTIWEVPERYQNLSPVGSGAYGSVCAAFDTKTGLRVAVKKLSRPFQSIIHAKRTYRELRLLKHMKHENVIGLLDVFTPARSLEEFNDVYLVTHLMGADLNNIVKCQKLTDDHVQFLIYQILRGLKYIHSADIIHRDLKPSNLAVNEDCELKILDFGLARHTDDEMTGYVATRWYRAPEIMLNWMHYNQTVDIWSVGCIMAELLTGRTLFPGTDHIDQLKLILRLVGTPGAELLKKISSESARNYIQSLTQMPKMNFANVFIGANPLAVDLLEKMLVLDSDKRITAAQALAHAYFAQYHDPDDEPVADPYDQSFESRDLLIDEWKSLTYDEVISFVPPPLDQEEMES
Description: Inhibition of P38alpha (unknown origin) at 1000 nM relative to control

[21] = molecular target: ALK tyrosine kinase receptor (Homo sapiens) (UniProt Q9UM73); conditions: dose 1000.0 nM
Description: Inhibition of ALK (unknown origin) at 1000 nM relative to control

in vivo [22] = conditions: Sprague-Dawley, rat, po, 5 mg/kg
[23] = molecular target: Serine/threonine-protein kinase B-raf (Homo sapiens) (UniProt P15056); conditions: dose 1000.0 nM
Description: Inhibition of BRAF (unknown origin) at 1000 nM relative to control

[24] = molecular target: Tyrosine-protein kinase Lck (Homo sapiens) (UniProt P06239); conditions: dose 1000.0 nM
Description: Inhibition of LCK (unknown origin) at 1000 nM relative to control

in vivo [25] = conditions: Sprague-Dawley, rat, po, 5 mg/kg; remark: listed apart in the source
NCI-H460 = test: cells; assay type: functional, cell-based; conditions: Homo sapiens, NCI-H460, 96 h
[26] = molecular target: Focal adhesion kinase 1 (Homo sapiens) (UniProt Q05397); conditions: dose 1000.0 nM
Description: Inhibition of FAK (unknown origin) at 1000 nM relative to control

[27] = molecular target: Vascular endothelial growth factor receptor 2 (Homo sapiens) (UniProt P35968); conditions: dose 1000.0 nM
Description: Inhibition of VEGFR2(unknown origin) at 1000 nM relative to control

[28] = molecular target: Tyrosine-protein kinase JAK3 (Homo sapiens) (UniProt P52333); conditions: dose 1000.0 nM
Description: Inhibition of JAK3 (unknown origin) at 1000 nM relative to control

in vivo [29] = conditions: Sprague-Dawley, rat, po, 5 mg/kg; remark: listed apart in the source
Description: MRT in Sprague-Dawley rat at 5 mg/kg, po administered as single dose measured up to 8 hrs by LC/MS-MS analysis

in vivo [30] = conditions: Sprague-Dawley, rat, iv, 5 mg/kg; remark: listed apart in the source
Description: MRT in Sprague-Dawley rat at 5 mg/kg, iv administered as single dose measured up to 8 hrs by LC/MS-MS analysis

[31] = molecular target: Serine/threonine-protein kinase Nek3 (Homo sapiens) (UniProt P51956); conditions: dose 1000.0 nM
Chain of Serine/threonine-protein kinase Nek3 (Homo sapiens) (P51956 whole entry): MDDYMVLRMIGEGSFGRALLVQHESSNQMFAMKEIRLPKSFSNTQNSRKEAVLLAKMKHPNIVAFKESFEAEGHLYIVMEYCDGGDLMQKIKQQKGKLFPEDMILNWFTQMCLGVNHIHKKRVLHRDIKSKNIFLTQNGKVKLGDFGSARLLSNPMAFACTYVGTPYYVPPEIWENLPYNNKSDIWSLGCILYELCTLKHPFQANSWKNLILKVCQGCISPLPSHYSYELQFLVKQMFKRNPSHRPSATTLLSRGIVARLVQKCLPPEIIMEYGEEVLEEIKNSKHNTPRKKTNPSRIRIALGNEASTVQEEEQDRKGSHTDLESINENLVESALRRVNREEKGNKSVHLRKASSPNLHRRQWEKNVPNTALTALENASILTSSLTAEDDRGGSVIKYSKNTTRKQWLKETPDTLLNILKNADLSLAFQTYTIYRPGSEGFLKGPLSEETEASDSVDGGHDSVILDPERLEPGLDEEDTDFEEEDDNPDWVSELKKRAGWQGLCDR
Description: Inhibition of NEK3 (unknown origin) at 1000 nM relative to control

[32] = molecular target: Receptor-type tyrosine-protein kinase FLT3 (Homo sapiens) (UniProt P36888); conditions: dose 1000.0 nM
Description: Inhibition of FLT3 (unknown origin) at 1000 nM relative to control

[33] = molecular target: Macrophage-stimulating protein receptor (Homo sapiens) (UniProt Q04912); conditions: dose 1000.0 nM
Description: Inhibition of RON (unknown origin) at 1000 nM relative to control

[34] = molecular target: Serine/threonine-protein kinase Nek2 (Homo sapiens) (UniProt P51955); conditions: dose 1000.0 nM
Description: Inhibition of NEK2 (unknown origin) at 1000 nM relative to control

[35] = molecular target: Casein kinase II subunit alpha (Homo sapiens) (UniProt P68400); conditions: dose 1000.0 nM
Description: Inhibition of CK2alpha1 (unknown origin) at 1000 nM relative to control

[36] = molecular target: Proto-oncogene tyrosine-protein kinase Src (Homo sapiens) (UniProt P12931); conditions: dose 1000.0 nM
Description: Inhibition of SRC (unknown origin) at 1000 nM relative to control

[37] = molecular target: Serine/threonine-protein kinase PAK 3 (Homo sapiens) (UniProt O75914); conditions: dose 1000.0 nM
Description: Inhibition of PAK3 (unknown origin) at 1000 nM relative to control

[38] = molecular target: Mitogen-activated protein kinase kinase kinase 5 (Homo sapiens) (UniProt Q99683); conditions: dose 1000.0 nM
Description: Inhibition of ASK1 (unknown origin) at 1000 nM relative to control

[39] = molecular target: TGF-beta receptor type-1 (Homo sapiens) (UniProt P36897); conditions: dose 1000.0 nM
Description: Inhibition of TGFBR1 (unknown origin) at 1000 nM relative to control

in vivo [40] = conditions: Sprague-Dawley, rat, iv, 5 mg/kg; remark: listed apart in the source
Description: Initial plasma concentration in Sprague-Dawley rat at 5 mg/kg, iv administered as single dose measured up to 8 hrs by LC/MS-MS analysis

SNU-16 [41] = test: cells; assay type: functional, cell-based; conditions: Homo sapiens, SNU-16, 96 h
[42] = molecular target: RAC-gamma serine/threonine-protein kinase (Homo sapiens) (UniProt Q9Y243); conditions: dose 1000.0 nM
Description: Inhibition of AKT3 (unknown origin) at 1000 nM relative to control

[43] = molecular target: Epidermal growth factor receptor (Homo sapiens) (UniProt P00533); conditions: dose 1000.0 nM
Description: Inhibition of EGFR (unknown origin) at 1000 nM relative to control

[44] = molecular target: Calcium/calmodulin-dependent protein kinase type II subunit alpha (Homo sapiens) (UniProt Q9UQM7); conditions: dose 1000.0 nM
Chain of Calcium/calmodulin-dependent protein kinase type II subunit alpha (Homo sapiens) (Q9UQM7 whole entry): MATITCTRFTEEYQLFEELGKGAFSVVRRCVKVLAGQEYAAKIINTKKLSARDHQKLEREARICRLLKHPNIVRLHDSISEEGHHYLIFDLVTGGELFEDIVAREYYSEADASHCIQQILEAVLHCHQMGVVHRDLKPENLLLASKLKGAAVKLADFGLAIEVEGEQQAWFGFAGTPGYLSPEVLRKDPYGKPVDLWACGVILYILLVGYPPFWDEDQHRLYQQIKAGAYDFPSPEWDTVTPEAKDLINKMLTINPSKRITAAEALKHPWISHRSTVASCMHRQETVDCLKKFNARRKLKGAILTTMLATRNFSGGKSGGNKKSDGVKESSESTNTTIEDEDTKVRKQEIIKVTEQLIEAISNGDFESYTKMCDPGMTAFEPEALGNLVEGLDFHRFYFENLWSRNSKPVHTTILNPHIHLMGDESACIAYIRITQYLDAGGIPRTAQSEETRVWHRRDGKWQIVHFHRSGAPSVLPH
Description: Inhibition of CAMK2 alpha (unknown origin) at 1000 nM relative to control

SNU-16 [45] = test: animal or person; assay type: functional; conditions: Mus musculus, SNU-16, po, 960 h, time 40 day, read-out: TGI; remark: listed apart in the source
Description: Antitumor activity against human SNU-16 cells xenografted in BALB/c mouse assessed as tumor growth inhibition at 100 mg/kg, po administered once daily for 40 days relative to control

[46] = molecular target: Proto-oncogene tyrosine-protein kinase receptor Ret (Homo sapiens) (UniProt P07949); conditions: dose 1000.0 nM
Description: Inhibition of RET (unknown origin) at 1000 nM relative to control

[47] = molecular target: Aurora kinase A (Homo sapiens) (UniProt O14965); conditions: dose 1000.0 nM
Description: Inhibition of AURORA kinase A (unknown origin) at 1000 nM relative to control

in vivo [48] = conditions: Sprague-Dawley, rat, iv, 5 mg/kg; remark: listed apart in the source
[49] = molecular target: Mitogen-activated protein kinase 8 (Homo sapiens) (UniProt P45983); conditions: dose 1000.0 nM
Description: Inhibition of JNK1 (unknown origin) at 1000 nM relative to control

[50] = molecular target: Interferon-induced, double-stranded RNA-activated protein kinase (Homo sapiens) (UniProt P19525); conditions: dose 1000.0 nM
Description: Inhibition of EIF2AK2 (unknown origin) at 1000 nM relative to control

[51] = molecular target: Serine/threonine-protein kinase TAO1 (Homo sapiens) (UniProt Q7L7X3); conditions: dose 1000.0 nM
Description: Inhibition of TAOK1 (unknown origin) at 1000 nM relative to control

in vivo [52] = conditions: Sprague-Dawley, rat, po, 5 mg/kg; remark: listed apart in the source
Description: Clearance in Sprague-Dawley rat at 5 mg/kg, po administered as single dose measured up to 8 hrs by LC/MS-MS analysis

[53] = molecular target: Rho-associated protein kinase 1 (Homo sapiens) (UniProt Q13464); conditions: dose 1000.0 nM
Description: Inhibition of ROCK1 (unknown origin) at 1000 nM relative to control

[54] = molecular target: Tyrosine-protein kinase ABL1 (Homo sapiens) (UniProt P00519); conditions: dose 1000.0 nM
Description: Inhibition of ABL1 (unknown origin) at 1000 nM relative to control

[55] = molecular target: Serine/threonine-protein kinase pim-1 (Homo sapiens) (UniProt P11309); conditions: dose 1000.0 nM
Description: Inhibition of PIM1 (unknown origin) at 1000 nM relative to control

[56] = molecular target: Tyrosine-protein kinase receptor UFO (Homo sapiens) (UniProt P30530); conditions: dose 1000.0 nM
Description: Inhibition of AXL (unknown origin) at 1000 nM relative to control

NCI-H1581 [57] = test: animal or person; assay type: functional; conditions: Mus musculus, NCI-H1581, po, 624 h, time 26 day, read-out: TGI; remark: listed apart in the source
Description: Antitumor activity against human NCI-H1581 cells xenografted in BALB/c mouse assessed as tumor growth inhibition at 50 mg/kg, po administered once daily for 26 days relative to control

in vivo [58] = conditions: Sprague-Dawley, rat, po, 5 mg/kg; remark: listed apart in the source
Description: Half life in Sprague-Dawley rat plasma at 5 mg/kg, po administered as single dose measured up to 8 hrs by LC/MS-MS analysis

[59] = molecular target: Serine/threonine-protein kinase Chk1 (Homo sapiens) (UniProt O14757); conditions: dose 1000.0 nM
Description: Inhibition of CHK1 (unknown origin) at 1000 nM relative to control

[60] = molecular target: Glycogen synthase kinase-3 alpha (Homo sapiens) (UniProt P49840); conditions: dose 1000.0 nM
Description: Inhibition of GSK3alpha (unknown origin) at 1000 nM relative to control

[61] = molecular target: Mitogen-activated protein kinase 1 (Homo sapiens) (UniProt P28482); conditions: dose 1000.0 nM
Description: Inhibition of MAPK1 (unknown origin) at 1000 nM relative to control

[62] = molecular target: Receptor tyrosine-protein kinase erbB-2 (Homo sapiens) (UniProt P04626); conditions: dose 1000.0 nM
Description: Inhibition of HER2 (unknown origin) at 1000 nM relative to control

[63] = molecular target: Maternal embryonic leucine zipper kinase (Homo sapiens) (UniProt Q14680); conditions: dose 1000.0 nM
Chain of Maternal embryonic leucine zipper kinase (Homo sapiens) (Q14680 whole entry, looked up): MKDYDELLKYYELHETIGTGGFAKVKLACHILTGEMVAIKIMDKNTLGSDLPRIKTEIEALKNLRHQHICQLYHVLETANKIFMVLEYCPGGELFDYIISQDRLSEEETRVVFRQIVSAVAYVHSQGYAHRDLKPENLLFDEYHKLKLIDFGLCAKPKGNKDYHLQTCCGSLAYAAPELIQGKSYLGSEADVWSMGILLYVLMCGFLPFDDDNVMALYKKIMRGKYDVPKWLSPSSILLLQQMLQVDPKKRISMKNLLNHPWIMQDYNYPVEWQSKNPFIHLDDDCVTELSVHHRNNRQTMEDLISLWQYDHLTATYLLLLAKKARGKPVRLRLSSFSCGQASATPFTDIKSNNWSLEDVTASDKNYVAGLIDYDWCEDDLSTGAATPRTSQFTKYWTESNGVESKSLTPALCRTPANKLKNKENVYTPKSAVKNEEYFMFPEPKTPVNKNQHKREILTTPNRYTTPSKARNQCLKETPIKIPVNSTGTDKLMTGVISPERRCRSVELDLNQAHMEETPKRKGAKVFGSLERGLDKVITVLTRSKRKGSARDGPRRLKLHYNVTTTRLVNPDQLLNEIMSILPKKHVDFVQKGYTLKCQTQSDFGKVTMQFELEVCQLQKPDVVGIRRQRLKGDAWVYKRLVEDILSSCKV
Description: Inhibition of MELK (unknown origin) at 1000 nM relative to control

[64] = molecular target: Serine/threonine-protein kinase TBK1 (Homo sapiens) (UniProt Q9UHD2); conditions: dose 1000.0 nM
Description: Inhibition of TBK1 (unknown origin) at 1000 nM relative to control

Huh-7 = test: cells; assay type: functional, cell-based; conditions: Homo sapiens, Huh-7, 96 h
SK-HEP1 = test: cells; assay type: functional, cell-based; conditions: Homo sapiens, SK-HEP1, 96 h

SMILES: COc1cc(OC)cc(-c2nn(CCCCCN3CCN(C(=O)/C=C/C(F)(F)F)CC3)c3ncnc(N)c23)c1
- inhibition [1]: 0%
- inhibition [2]: 21%
- inhibition [3]: 35%
- IC50 (NCI-H1581 [4]): 0.016 µM
- inhibition [5]: 9%
- inhibition [6]: 3%
- Tmax at 8 h (in vivo [7]): 4.98 min
- inhibition in vivo at 100 mg/kg (NCI-H1581 [8]): 88.6%
- inhibition [9]: 1%
- inhibition (Homo sapiens [10]): 0%
- inhibition [11]: 0%
- inhibition [12]: 0%
- inhibition [13]: 0%
- IC50 [14]: 3.21 µM
- inhibition in vivo at 50 mg/kg (SNU-16 [15]): 67.9%
- inhibition [16]: 42%
- inhibition [17]: 0%
- inhibition (Homo sapiens [18]): 0%
- inhibition [19]: 0%
- inhibition [20]: 3%
- inhibition [21]: 0%
- Tmax at 8 h (in vivo [22]): 8.34 min
- inhibition [23]: 2%
- inhibition [24]: 23%
- bioavailability at 8 h (in vivo [25]): 24.9%
- IC50 (NCI-H460): > 10 µM
- inhibition [26]: 17%
- inhibition [27]: 7%
- inhibition [28]: 11%
- MRT at 8 h (in vivo [29]): 19.1 min
- MRT at 8 h (in vivo [30]): 60.5 min
- inhibition [31]: 1%
- inhibition [32]: 1%
- inhibition [33]: 4%
- inhibition [34]: 0%
- inhibition [35]: 0%
- inhibition [36]: 83%
- inhibition [37]: 9%
- inhibition [38]: 0%
- inhibition [39]: 8%
- C0 at 8 h (in vivo [40]): 0.519 ng/mL
- IC50 (SNU-16 [41]): 0.006 µM
- inhibition [42]: 6%
- inhibition [43]: 2%
- inhibition [44]: 0%
- inhibition in vivo at 100 mg/kg (SNU-16 [45]): 89.4%
- inhibition [46]: 24%
- inhibition [47]: 1%
- AUC at 8 h (in vivo [48]): 0.309 ng·h/mL
- inhibition [49]: 2%
- inhibition [50]: 27%
- inhibition [51]: 0%
- CL/F at 8 h (in vivo [52]): 280000 mL/min
- inhibition [53]: 12%
- inhibition [54]: 14%
- inhibition [55]: 0%
- inhibition [56]: 0%
- inhibition in vivo at 50 mg/kg (NCI-H1581 [57]): 69.5%
- half-life at 8 h (in vivo [58]): 16.8 min
- inhibition [59]: 2%
- inhibition [60]: 0%
- inhibition [61]: 4%
- inhibition [62]: 3%
- inhibition [63]: 0%
- inhibition [64]: 1%

SMILES: COc1cc(CCc2cc(NC(=O)c3ccc(N4C[C@@H](C)N[C@@H](C)C4)cc3)n[nH]2)cc(OC)c1 [FEXAGRATINIB]
- IC50 (NCI-H1581 [4]): 0.024 µM
- IC50 (NCI-H460): > 10 µM
- IC50 (Huh-7): > 10 µM
- IC50 (SNU-16 [41]): 0.006 µM
- IC50 (SK-HEP1): 2.78 µM
